# Assays:
# [1] = compound: NC(=O)CCCCC1CCSS1 [lipoamide]; assay: thermal stability z-score vs DMSO; higher = more thermally stabilized by treatment; conditions: HeLa, lipoamide concentration 100 µM
# Procedure: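 Cellular thermal proteome profiling in HeLa cells. Cells were treated with 100 µM lipoamide for 1 h, with or without 1 mM arsenate for a further 1 h, then heated to ten temperatures (37-66.3 °C), and soluble protein was quantified by TMT mass spectrometry relative to 0.1% DMSO controls. The thermal stability score (sum of log2 fold changes minus the abundance score) was transformed to a z-score; mean of n = 3 experiments.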
# [2] = compound: O=[As]([O-])(O)O.[K+] [potassium arsenate]; assay: as above; conditions: HeLa; arsenate concentration 1 mM
# Procedure: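 Cellular thermal proteome profiling in HeLa cells treated with 1 mM arsenate for 1 h (DMSO pretreatment), heated to ten temperatures (37-66.3 °C). Soluble protein was quantified by TMT mass spectrometry relative to DMSO controls; the thermal stability score was transformed to a z-score; mean of n = 3 experiments.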
# [3] = arsenate co-treatment: 1 mM arsenate 1 h
# 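Further: each temperature applied for 3 min, abundance score taken as mean log2 fold change at the two lowest temperatures, z-score obtained by mean subtraction and division by SD.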
# Chain of UniProt Q8WY22 (Q8WY22 whole entry): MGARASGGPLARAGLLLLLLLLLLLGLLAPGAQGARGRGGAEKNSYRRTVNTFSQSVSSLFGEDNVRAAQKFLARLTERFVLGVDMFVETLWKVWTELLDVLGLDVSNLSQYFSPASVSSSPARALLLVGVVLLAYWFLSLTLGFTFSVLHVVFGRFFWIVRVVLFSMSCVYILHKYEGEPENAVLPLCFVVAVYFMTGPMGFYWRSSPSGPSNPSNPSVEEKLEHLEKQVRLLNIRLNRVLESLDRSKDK
# Chain of UniProt A1A4S6 (A1A4S6 whole entry): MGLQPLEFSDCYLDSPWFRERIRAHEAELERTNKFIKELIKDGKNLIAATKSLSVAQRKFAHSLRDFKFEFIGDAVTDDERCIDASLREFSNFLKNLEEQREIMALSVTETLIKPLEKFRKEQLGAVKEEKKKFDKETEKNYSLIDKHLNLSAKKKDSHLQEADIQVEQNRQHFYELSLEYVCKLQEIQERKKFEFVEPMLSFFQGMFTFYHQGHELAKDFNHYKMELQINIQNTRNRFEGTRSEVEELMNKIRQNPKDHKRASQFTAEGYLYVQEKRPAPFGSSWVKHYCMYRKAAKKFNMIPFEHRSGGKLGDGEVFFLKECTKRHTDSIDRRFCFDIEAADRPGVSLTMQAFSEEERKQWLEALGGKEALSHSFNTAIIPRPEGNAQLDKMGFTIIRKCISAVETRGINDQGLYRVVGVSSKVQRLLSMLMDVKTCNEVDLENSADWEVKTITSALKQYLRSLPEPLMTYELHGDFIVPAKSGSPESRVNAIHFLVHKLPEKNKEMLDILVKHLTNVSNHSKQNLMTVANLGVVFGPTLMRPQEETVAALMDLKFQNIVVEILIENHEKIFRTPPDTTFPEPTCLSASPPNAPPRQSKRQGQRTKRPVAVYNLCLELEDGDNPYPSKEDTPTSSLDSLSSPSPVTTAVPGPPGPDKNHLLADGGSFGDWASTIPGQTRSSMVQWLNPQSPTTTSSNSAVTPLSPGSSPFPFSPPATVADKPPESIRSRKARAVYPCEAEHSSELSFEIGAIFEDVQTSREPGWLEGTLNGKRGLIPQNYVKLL
# Chain of UniProt P57737 (P57737 whole entry): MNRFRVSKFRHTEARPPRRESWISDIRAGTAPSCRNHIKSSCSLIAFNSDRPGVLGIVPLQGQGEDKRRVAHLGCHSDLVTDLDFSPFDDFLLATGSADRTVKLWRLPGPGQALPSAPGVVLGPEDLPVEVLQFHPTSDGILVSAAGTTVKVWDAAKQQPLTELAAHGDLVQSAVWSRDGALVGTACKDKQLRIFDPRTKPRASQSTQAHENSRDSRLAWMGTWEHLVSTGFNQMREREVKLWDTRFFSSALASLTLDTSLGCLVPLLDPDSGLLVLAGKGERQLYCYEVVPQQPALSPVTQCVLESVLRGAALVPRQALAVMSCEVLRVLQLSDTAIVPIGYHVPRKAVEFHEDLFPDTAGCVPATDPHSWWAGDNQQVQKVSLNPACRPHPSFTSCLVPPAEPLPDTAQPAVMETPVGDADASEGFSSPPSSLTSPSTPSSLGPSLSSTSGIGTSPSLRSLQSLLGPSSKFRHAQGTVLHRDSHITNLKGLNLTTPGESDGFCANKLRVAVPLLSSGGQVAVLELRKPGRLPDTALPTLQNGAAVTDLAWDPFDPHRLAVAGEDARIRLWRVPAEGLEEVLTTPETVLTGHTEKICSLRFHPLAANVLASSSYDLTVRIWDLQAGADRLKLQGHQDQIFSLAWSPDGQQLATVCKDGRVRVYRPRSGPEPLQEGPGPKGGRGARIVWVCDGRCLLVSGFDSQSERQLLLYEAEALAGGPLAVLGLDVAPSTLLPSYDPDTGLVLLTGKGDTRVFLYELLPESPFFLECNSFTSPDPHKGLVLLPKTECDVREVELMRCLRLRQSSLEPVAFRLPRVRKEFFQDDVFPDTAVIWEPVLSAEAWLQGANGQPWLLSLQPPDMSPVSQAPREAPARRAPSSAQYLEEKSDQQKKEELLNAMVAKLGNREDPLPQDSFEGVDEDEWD
# Chain of UniProt P34896 (P34896 whole entry): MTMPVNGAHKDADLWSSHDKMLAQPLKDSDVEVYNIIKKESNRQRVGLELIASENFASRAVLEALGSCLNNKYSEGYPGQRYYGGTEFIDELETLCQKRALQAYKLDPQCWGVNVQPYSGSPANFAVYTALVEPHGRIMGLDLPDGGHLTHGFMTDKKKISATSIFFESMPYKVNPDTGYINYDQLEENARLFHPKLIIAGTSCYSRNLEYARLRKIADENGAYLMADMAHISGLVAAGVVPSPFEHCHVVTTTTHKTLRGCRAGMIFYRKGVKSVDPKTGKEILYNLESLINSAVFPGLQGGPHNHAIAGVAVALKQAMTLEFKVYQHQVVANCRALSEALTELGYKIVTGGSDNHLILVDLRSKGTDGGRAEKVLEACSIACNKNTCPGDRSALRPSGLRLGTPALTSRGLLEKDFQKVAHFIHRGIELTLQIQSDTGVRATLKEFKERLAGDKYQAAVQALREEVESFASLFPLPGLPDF
# Chain of UniProt Q6DN12 (Q6DN12 whole entry): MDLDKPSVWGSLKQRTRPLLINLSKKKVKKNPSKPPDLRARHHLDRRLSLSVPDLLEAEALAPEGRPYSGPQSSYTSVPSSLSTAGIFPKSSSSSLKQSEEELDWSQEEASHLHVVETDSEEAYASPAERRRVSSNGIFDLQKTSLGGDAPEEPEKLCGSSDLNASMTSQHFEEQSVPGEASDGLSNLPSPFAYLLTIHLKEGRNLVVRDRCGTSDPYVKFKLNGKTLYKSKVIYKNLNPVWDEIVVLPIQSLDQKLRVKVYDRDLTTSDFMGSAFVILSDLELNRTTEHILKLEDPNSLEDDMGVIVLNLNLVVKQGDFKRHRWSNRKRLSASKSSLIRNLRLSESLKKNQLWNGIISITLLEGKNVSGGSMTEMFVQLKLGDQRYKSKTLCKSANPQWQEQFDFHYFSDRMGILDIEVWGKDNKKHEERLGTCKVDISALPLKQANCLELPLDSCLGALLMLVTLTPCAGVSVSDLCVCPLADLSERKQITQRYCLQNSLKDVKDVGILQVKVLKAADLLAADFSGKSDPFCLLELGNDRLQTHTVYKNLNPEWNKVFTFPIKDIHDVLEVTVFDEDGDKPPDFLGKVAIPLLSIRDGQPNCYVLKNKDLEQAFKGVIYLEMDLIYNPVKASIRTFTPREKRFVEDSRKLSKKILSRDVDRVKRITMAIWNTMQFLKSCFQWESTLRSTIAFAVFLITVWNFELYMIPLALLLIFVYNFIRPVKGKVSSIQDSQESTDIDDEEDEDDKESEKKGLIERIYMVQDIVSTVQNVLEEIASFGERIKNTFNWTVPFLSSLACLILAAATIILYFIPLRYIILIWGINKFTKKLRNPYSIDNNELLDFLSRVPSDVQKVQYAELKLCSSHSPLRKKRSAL
# Chain of UniProt Q5T9S5 (Q5T9S5 whole entry): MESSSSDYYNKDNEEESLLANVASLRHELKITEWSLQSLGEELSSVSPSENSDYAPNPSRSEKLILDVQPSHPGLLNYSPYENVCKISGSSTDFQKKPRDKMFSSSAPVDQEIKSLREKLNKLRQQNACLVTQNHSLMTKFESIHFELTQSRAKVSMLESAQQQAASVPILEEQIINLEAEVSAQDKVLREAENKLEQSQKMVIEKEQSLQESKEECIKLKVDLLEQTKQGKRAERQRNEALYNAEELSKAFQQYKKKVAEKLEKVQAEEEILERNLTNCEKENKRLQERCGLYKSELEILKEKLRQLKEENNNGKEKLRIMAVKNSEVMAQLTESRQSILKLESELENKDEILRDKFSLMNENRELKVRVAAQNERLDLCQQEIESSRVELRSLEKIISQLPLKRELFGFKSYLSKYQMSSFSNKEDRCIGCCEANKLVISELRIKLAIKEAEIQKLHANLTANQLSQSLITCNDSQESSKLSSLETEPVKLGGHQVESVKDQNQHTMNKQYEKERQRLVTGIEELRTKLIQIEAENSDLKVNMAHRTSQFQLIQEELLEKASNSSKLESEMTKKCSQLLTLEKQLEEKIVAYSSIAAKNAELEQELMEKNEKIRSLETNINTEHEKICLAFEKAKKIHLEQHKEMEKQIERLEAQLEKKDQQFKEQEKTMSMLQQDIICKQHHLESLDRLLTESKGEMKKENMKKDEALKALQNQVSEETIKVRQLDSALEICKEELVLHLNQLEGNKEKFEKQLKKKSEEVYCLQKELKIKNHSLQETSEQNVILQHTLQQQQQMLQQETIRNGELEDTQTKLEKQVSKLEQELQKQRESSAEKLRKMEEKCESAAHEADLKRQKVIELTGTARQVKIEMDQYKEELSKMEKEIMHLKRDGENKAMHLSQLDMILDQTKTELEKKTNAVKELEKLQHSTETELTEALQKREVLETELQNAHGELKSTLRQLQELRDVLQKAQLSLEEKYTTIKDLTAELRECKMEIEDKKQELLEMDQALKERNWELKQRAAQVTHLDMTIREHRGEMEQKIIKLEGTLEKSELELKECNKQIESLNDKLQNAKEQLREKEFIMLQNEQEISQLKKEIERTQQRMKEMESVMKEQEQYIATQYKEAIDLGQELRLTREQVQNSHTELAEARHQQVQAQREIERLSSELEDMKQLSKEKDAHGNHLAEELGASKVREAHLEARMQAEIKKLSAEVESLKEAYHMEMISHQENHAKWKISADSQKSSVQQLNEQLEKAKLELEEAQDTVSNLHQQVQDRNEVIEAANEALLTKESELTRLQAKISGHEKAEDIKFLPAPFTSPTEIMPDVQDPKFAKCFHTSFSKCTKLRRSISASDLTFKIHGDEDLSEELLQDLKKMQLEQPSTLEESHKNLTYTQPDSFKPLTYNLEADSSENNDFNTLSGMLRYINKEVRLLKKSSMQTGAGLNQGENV
# Chain of UniProt Q9H944 (Q9H944 whole entry): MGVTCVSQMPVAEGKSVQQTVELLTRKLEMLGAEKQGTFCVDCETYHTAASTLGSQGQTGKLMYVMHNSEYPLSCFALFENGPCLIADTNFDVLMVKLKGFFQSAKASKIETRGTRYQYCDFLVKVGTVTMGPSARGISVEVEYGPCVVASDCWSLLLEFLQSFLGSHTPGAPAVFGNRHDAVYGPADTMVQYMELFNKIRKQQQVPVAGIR
Target,"thermal stability z-score [1, 3]",thermal stability z-score ([1]; arsenate co-treatment: none),thermal stability z-score [2]
PGAM1 (UniProt P18669),-0.0445,0.244,-0.0878
MAPRE1 (UniProt Q15691),0.796,0.705,0.154
MED20 (UniProt Q9H944),0.506,-0.154,-0.226
SAR1B (UniProt Q9Y6B6),0.0537,0.376,0.0901
DMD (UniProt P11532),0.0264,-0.124,-0.176
DYNC1LI1 (UniProt Q9Y6G9),-0.18,-0.1,0.463
TRIM27 (UniProt P14373),0.641,-0.0794,-0.874
OXSM (UniProt Q9NWU1),-0.024,0.0818,0.51
FAM21C (UniProt Q9Y4E1),0.0661,0.32,0.0902
MCTP2 (UniProt Q6DN12),-0.192,-0.145,-0.604
C7ORF50 (UniProt Q9BRJ6),-0.995,-0.353,-0.593
SSBP4 (UniProt Q9BWG4),1.24,1.21,-0.402
COX19 (UniProt Q49B96),0.659,0.945,0.412
MRPL48 (UniProt Q96GC5),-0.0867,0.198,0.101
MSH3 (UniProt P20585),-0.0133,0.43,-0.95
GALE (UniProt Q14376),0.0359,-0.161,-2.31
S100A13 (UniProt Q99584),0.758,1.06,0.67
PLAUR (UniProt Q03405),-1.4,-2.11,-0.768
CORO7 (UniProt P57737),0.188,0.174,-0.177
CSTF1 (UniProt Q05048),-0.533,0.0516,-1.45
HELB (UniProt Q8NG08),-0.468,-0.74,-0.671
LMF2 (UniProt Q9BU23),-0.972,-0.61,0.316
GTF2H2|GTF2H2C,0.00796,-0.0811,-0.166
BRI3BP (UniProt Q8WY22),0.227,0.0879,-0.544
C1S (UniProt P09871),0.0855,-0.147,0.0687
CAPNS1 (UniProt P04632),0.532,0.582,0.0106
TCEAL4 (UniProt Q96EI5),0.347,0.201,-0.306
EDC4 (UniProt Q6P2E9),-0.258,0.0716,-0.454

Target,"thermal stability z-score [1, 3]",thermal stability z-score ([1]; arsenate co-treatment: none),thermal stability z-score [2]
ISCU (UniProt Q9H1K1),0.628,0.0375,-1.15
CTSC (UniProt P53634),-0.492,-0.279,-0.148
ABHD14B (UniProt Q96IU4),1.24,0.828,0.527
CRTC1 (UniProt Q6UUV9),-0.063,-0.202,-0.151
SPECC1 (UniProt Q5M775),0.0376,0.504,1.48
SH3RF1 (UniProt Q7Z6J0),-0.0346,0.00665,-0.327
PAXIP1 (UniProt Q6ZW49),-0.0199,0.255,0.00378
FKBP9 (UniProt O95302),-3.58,-2.22,0.508
PTPRJ (UniProt Q12913),1.03,-0.0729,-0.764
CCDC18 (UniProt Q5T9S5),0.0532,-0.042,0.0398
WBSCR16 (UniProt Q96I51),1.56,0.878,0.683
ARHGAP10 (UniProt A1A4S6),0.133,0.268,0.226
ADAM9 (UniProt Q13443),-0.535,-0.428,0.397
RDH11 (UniProt Q8TC12),-0.514,0.808,0.385
SARS (UniProt P49591),1.63,1.23,2.1
EIF2AK3 (UniProt Q9NZJ5),-0.372,-0.109,-0.317
G6PD (UniProt P11413),0.218,0.206,0.535
DRAM2 (UniProt Q6UX65),0.00378,-0.247,1.26
TNFRSF1A (UniProt P19438),-0.0438,-0.00708,0.164
RGS10 (UniProt O43665),0.748,0.902,0.0472
SHMT1 (UniProt P34896),0.374,-0.0345,0.764
STAMBP (UniProt O95630),-0.0484,-7.9e-05,1.23
NOTCH1 (UniProt P46531),0.143,0.13,-0.0336
GDPD3 (UniProt Q7L5L3),0.187,-0.422,0.114
RB1CC1 (UniProt Q8TDY2),-0.502,-0.143,0.893
DHODH (UniProt Q02127),0.213,0.162,-0.752
PIN4 (UniProt Q9Y237),0.199,-0.0862,-0.422

# Reference: the supplement of paper PMC12463676, “Small-molecule dissolution of stress granules by redox modulation benefits ALS models” (Nature Chemical Biology, 2025)
